Experiment: gradient 5% acetonitrile 3 min, to 50% in 2 min, to 85% in 15 min, held 3 min, 100 µL/min
Settings: column: Zorbax Extend-C18 2.1 x 50 mm; eluents: water / acetonitrile, 0.1% formic acid
In short: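 Pure standards were analyzed in mixtures of ~100 molecules using HPLC coupled to a quadrupole time-of-flight mass spectrometer, in both positive and negative ionization mode. Separation used a Zorbax Extend-C18 column (2.1 × 50 mm, 1.8 μm) at 100 μL/min, with water and acetonitrile each containing 0.1% formic acid. Dead and dwell volumes were 40 μL and 900 μL, and data were collected over 3 months. Retention time was read from computationally picked adduct peaks, each inspected manually.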

| RP-LC retention time | Structure (SMILES) |
| --- | --- |
| 730 s | COc1ccc(NS(=O)(=O)c2cc3c4c(c2)CCC(=O)N4CCC3)cc1OC |
| 902 s | O=C(O)CCC(=O)Nc1sc2c(c1C(=O)Nc1ccccc1)CCC2 |
| 853 s | CCc1ccccc1NC(=O)N1CCC(n2cnc3c(C)cccc3c2=O)CC1 |
| 805 s | CCOc1ccc(S(=O)(=O)N2CCCC2C(=O)Nc2nnc(CC)s2)cc1 (stereo unspecified) |
| 692 s | CC1CCN(C(=O)c2ccc3c(c2)CC(=O)N3C)CC1 |
| 928 s | Cc1ccccc1Cn1c(CN2CCC(C(=O)NCCC3=CCCCC3)CC2)cc2ccccc21 |
| 600 s | CN1C(=O)C2CCCCN2c2ccc(C(=O)NCCCN3CCCCC3)cc21 (stereo unspecified) |
| 570 s | CC(=O)Nc1nc2ccc(CC(=O)N3CCN(c4ccccn4)CC3)cc2s1 |
| 1010 s | CCCNC(=O)NC1CCN(c2nc3cccnc3n(Cc3ccc(C)cc3)c2=O)CC1 |
| 553 s | CCN(CC)C(=O)N1CCC(c2noc(COc3ccc(F)cc3)n2)C1 (stereo unspecified) |
| 626 s | COc1ccc(N2CCN(C(=O)C3CCc4nc(N5CCCC5)ncc4C3)CC2)cc1 (stereo unspecified) |
| 716 s | CN1C(=O)Cc2ccccc2C1C(=O)NCc1cc(F)ccc1F (stereo unspecified) |
| 1000 s | CCCn1cc(C(=O)NCCCOC)c(S(=O)(=O)N2CCN(c3ccc(Cl)cc3)CC2)n1 |
| 674 s | CCc1ccccc1NC(=O)Cn1nc2n(c1=O)CCCC2 |
| 657 s | CN(C)c1nc2cc(C(=O)N3CCCC3)sc2n1-c1ccccc1 |
| 700 s | CCC1CCCCN1CCNC(=O)c1sc2cccc(F)c2c1OC (stereo unspecified) |
| 718 s | Cc1ccc(NC(=O)N2CCCC(Cn3cnc4cccnc43)C2)cc1F (stereo unspecified) |
| 606 s | CCn1ccc(C(=O)N2CCC(c3nc4cccnc4n3CCOC)C2)n1 (stereo unspecified) |

Continued, compound first:

| Structure (SMILES) | RP-LC retention time |
| --- | --- |
| COc1ccccc1-c1nc(Cn2nnc(-c3nc(-c4ccc(F)cc4)no3)c2C)c(C)o1 | 1160 s |
| CCc1cc(-c2csc(S(=O)(=O)Nc3cc(C)cc(C)c3)c2)on1 | 1050 s |
| CCOC(=O)c1[nH]c(C)c(C(=O)C(C)N(Cc2ccc(F)cc2)C(=O)C2CC2)c1C (stereo unspecified) | 917 s |
| COc1ccc(CNC(=O)c2[nH]c3cc(C)sc3c2CN(C)C)c(OC)c1 | 691 s |
| Cc1cc(N2CCN(C)CC2)nc(N2CCN(S(=O)(=O)c3ccc(-c4ccccc4)cc3)CC2)n1 | 615 s |
| O=c1[nH][nH]c2nnc(-c3c(-c4ccccc4)nn4ccccc34)cc12 | 679 s |
| c1cc(-c2cnn3cc(-c4ccc(OCCN5CCCCC5)cc4)cnc23)ccn1 | 584 s |
| COc1ccc2c(=O)c(Oc3ccc(C(=O)Nc4cccnc4)cc3)coc2c1 | 605 s |
| Fc1ccc2[nH]c(CN3CCN(c4ccccn4)CC3)cc2c1 | 649 s |
| CC(C)n1c(=O)oc2cc(-c3noc(-c4cc(F)cc(F)c4)n3)ccc21 | 1220 s |
| COCCN(C)C(=O)c1cn(C2CN(S(=O)(=O)c3c(C)noc3C)C2)nn1 | 703 s |
| Cc1cc2c(cc1S(=O)(=O)NC1CC1)N(C(=O)C1CCC1)CC2 | 844 s |
| Cc1sc(NC(=O)c2ccc(S(=O)(=O)N(C)C)cc2)nc1-c1ccc2c(c1)N(C)C(=O)CO2 | 938 s |
| COc1ccc(CCc2nc3nccc(-c4ccc(OC)c(OC)c4)n3n2)cc1OC | 781 s |
| Cc1noc([C@@H]2CC(F)(F)CN2S(=O)(=O)c2cccc(F)c2)n1 | 891 s |
| Cc1cc(F)ccc1NC(=O)C1CCN(S(=O)(=O)c2cc(C(=O)N(C)C)cs2)CC1 | 758 s |
| COc1cccc2cc(C(=O)Nc3ccc4c(c3)C(=O)Nc3ccccc3O4)oc12 | 950 s |
| CSc1cccc(NC(=O)Cn2cccc(-c3nc(-c4ccc(Br)cc4)no3)c2=O)c1 | 1050 s |

From the METLIN SMRT retention time set (Domingo-Almenara et al. 2019)
